Our source for the IC50 values is ChEMBL document CHEMBL3886760, “Cyclic amine substituted heterocyclic CETP inhibitors” (2016).

SMILES strings stand for the structures.

The target of the assay is T1, Cholesteryl ester transfer protein (Homo sapiens, UniProt P11597).
T1 sequence (P11597 whole entry): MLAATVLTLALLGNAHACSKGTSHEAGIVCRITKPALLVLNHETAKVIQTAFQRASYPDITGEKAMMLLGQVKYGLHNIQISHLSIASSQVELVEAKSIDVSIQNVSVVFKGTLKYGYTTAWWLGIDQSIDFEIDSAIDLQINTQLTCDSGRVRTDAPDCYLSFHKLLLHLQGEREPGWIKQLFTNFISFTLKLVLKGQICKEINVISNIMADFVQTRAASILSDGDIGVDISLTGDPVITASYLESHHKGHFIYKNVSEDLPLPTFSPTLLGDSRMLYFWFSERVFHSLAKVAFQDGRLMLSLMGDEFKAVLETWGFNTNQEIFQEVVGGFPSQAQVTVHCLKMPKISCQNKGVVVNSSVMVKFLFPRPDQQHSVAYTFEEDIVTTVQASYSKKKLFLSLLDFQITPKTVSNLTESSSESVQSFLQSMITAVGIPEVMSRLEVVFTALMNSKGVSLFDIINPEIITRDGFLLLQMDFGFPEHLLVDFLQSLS
The experiment in a line: Scintillation Proximity Assay (SPA): First, low density lipoprotein (LDL) (Meridian) was biotinylated by incubating LDL with biotin for 1 hour on ice, after which it was dialyzed to remove free biotin. Then compounds at varying concentrations were incubated with 15 nM CETP (reagent production group, In Vitro Pharmacology, MRL Rahway) and 50 ug/ml of the biotinylated LDL in 50 mM HEPES, 150 mM NaCl, pH 7.4, for 1 hour at 37° C. The reaction was started by adding 3H-cholesterol ester high density lipoprotein (HDL) (American Radiochemicals Corp) at a concentration of 0.6 nM. The reaction proceeded for 2 hours at 37° C., after which time it was quenched by the addition of 12% acetic acid. PVT streptavadin-coated scintillation proximity beads, which had been brought to room temperature, were then added at a concentration of 4 mg/ml. The assay was then mixed and counted after one half hour in a Microbeta plate reader.

In turn, `COc1ncc(Cl)cc1-c1cnc(N2CC(F)C2)nc1CN1C(=O)O[C@H](c2cc(C(F)(F)F)cc(C(F)(F)F)c2)[C@@H]1C` yielded an IC50 of 38 nM. That is a double-digit nanomolar value.
